According to ChEMBL document CHEMBL1137057 (Bioorg Med Chem Lett, 2004):

What was measured:
[1] = biological target: T1, Neuronal acetylcholine receptor; alpha4/beta2 (Rattus norvegicus, UniProt P09483+P12390); assay: Inhibition of [3H]cytisine binding to Nicotinic acetylcholine receptor alpha4-beta2 of rat cortical membranes; type: cell membranes, Membrane
[2] = biological target: Neuronal acetylcholine receptor subunit alpha-7 (Rattus norvegicus, UniProt Q05941); assay: Inhibition of [3H]-BTX binding to Nicotinic acetylcholine receptor alpha-7 of rat hippocampal membranes; type: cell membranes, Membrane
[3] = biological target: T1, Neuronal acetylcholine receptor; alpha4/beta2; assay: Inhibition of [3H]nicotine binding to Nicotinic acetylcholine receptor alpha4-beta2 of rat cortical membranes; type: cell membranes, Membrane
Mus musculus = species: Mus musculus; assay: Effective concentration in antinociception activity in mouse tail flick test; type: functional, organism-based
[4] = biological target: T1, Neuronal acetylcholine receptor; alpha4/beta2; assay: Inhibition of [3H]epibatidine binding to Nicotinic acetylcholine receptor alpha4-beta2 of rat cortical membranes; type: cell membranes, Membrane

T1 sequence (P09483 whole entry): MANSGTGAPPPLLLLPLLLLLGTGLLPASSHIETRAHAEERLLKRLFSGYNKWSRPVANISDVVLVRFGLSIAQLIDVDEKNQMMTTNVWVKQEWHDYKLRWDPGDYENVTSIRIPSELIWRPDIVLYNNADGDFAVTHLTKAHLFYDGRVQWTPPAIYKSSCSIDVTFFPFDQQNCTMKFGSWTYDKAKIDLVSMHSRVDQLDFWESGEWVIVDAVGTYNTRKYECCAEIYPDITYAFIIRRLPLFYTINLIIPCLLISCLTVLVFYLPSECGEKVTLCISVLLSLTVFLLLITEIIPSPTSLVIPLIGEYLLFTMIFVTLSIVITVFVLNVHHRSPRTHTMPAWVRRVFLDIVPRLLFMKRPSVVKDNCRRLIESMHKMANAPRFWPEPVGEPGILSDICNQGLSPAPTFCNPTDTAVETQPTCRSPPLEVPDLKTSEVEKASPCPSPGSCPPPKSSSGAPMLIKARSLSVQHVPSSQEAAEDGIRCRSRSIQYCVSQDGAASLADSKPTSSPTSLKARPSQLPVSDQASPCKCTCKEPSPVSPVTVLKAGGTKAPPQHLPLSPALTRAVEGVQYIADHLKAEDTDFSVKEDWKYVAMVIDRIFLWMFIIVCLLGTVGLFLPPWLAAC
T1 sequence (P12390 whole entry): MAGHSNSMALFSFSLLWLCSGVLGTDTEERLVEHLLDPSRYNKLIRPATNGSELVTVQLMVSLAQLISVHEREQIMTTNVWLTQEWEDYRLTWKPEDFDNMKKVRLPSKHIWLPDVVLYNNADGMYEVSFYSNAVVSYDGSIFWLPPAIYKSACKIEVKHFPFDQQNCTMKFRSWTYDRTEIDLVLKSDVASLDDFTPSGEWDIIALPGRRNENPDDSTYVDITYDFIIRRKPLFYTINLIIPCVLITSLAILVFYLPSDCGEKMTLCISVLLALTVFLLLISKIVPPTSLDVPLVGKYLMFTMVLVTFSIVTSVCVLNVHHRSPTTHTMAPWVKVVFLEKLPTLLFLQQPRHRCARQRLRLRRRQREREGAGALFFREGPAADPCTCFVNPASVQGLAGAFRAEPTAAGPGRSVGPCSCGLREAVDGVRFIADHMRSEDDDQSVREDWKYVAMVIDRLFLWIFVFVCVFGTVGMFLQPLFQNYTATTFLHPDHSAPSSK
Sequence of Neuronal acetylcholine receptor subunit alpha-7 (Q05941 whole entry): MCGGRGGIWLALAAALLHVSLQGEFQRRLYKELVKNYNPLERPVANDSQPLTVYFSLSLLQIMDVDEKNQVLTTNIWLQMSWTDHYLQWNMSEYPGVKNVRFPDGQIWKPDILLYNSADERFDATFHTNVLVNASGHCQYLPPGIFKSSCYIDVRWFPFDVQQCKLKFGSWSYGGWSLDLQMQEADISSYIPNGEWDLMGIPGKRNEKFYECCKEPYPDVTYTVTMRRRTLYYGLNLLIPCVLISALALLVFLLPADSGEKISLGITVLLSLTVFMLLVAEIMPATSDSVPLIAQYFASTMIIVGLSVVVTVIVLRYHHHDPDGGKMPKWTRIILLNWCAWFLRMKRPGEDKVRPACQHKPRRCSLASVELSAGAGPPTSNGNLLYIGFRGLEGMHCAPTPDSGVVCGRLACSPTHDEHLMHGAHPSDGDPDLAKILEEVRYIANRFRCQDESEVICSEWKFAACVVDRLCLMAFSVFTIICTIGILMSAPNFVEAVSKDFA

Compound | Ki [1] [nM] | Ki [2] [nM] | Ki [3] [nM] | other results
Clc1ccc(C2CC3CNC32)cn1 (stereo not given) | 3.9 | – | – | –
Clc1ccc(C2CC3CNC2C3)cn1 (stereo not given) | 6.6 | 1600 | > 38 | –
Clc1ccc(C2CC3NCC32)cn1 (stereo not given) | 5 | – | – | –
Clc1ccc([C@@H]2CC3CC2CN3)cn1 (stereo not given in full) | – | 6.3 | 0.05 | –
Clc1ccc([C@@H]2CC3CNC2C3)cn1 (stereo not given in full) | 0.03 | 3.9 | 0.04 | –
Clc1ccc(C2CC3CCC2NC3)cn1 (stereo not given) | 0.47 | – | – | EC50 (Mus musculus): 0.04 mg/kg
Clc1ccc(C2CC3CC2CN3)cn1 (stereo not given) | 30 | 3300 | > 38 | –
Clc1ccc(C2CCC3CCC2N3)cn1 (stereo not given) | – | – | – | Ki [4]: 1.6 nM
Clc1ccc(C2CC3CCCCC2N3)cn1 (single isomer, unassigned; (-)) | – | – | 0.35 | –
Clc1ccc(C2CC3CCCCC2N3)cn1 (stereo in doubt; 16 (+)) | – | – | 0.13 | –
Clc1ccc(C2CC3CCCCC2N3)cn1 (stereo in doubt; 17) | – | – | 1.25 | –
Clc1ccc(C2CC3CCC2N3)cn1 (stereo not given) [EPIBATIDINE] | – | – | – | EC50 (Mus musculus): 0.01 mg/kg
